Experimental data reported in patent US5733913A, “6-Aryl pyrido[2,3-d] pyrimidines and naphthyridines for inhibiting protein tyrosine kinase mediated cellular proliferation” (priority 1995, dated 1998).
Read-outs that look alike come from different tables or passages of the source.

Columns and labels:
[1] = biological target: T1, human FGF-1 (flg) receptor tyrosine kinase (Homo sapiens, UniProt P11362); experiment: FGF receptor tyrosine kinase assay; assay type: biochemical; conditions: read-out: Inhibition of Protein Tyrosine Kinases, FGF, IC50
T1 construct: a fragment of DNA that codes for the intracellular tyrosine kinase domain; made in house; host or cells: Sf9 insect cells (baculovirus), cell lysate
Outline: (§1)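 Intracellular kinase domains expressed in baculovirus-infected SF9 cells; crude lysate used as enzyme. Inhibitor preincubated 10 min at 25 °C with lysate in pH 7.0 Hepes buffer with 10 mM MnCl2 and poly(Glu-Tyr) 4:1, then γ-32P-ATP (50 μM ATP) added for 10 min at 25 °C. TCA-precipitated 32P on filters counted, no-enzyme background subtracted.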

PDGF receptor = PDGF receptor autophosphorylation in RASMC; assay type: cell-based, rat; conditions: PDGF-BB 30 ng/mL, read-out: Inhibition of PDGF Stimulated Receptor Auto Phosphorylation (IC50)
Experimental: Rat aorta smooth muscle cells (RASMC) were isolated from the thoracic aorta of rats and explanted according to the method of Ross, J. Cell. […] Cells were grown in Dulbecco's modified Eagle's medium (DMEM, Gibco) containing 10% fetal calf serum (FBS, Hyclone, Logan, Utah), 1% glutamine (Gibco) and 1% penicillin/streptomycin (Gibco). Cells were identified as smooth muscle cells by their "hill and valley" growth pattern and by fluorescent staining with a monoclonal antibody specific for SMC μ-actin (Sigma). RASMC were used between passages 5 and 20 for all experiments. Test compounds were prepared in dimethylsulfoxide (DMSO) in order to achieve consistency in the vehicle and to ensure compound solubility. Appropriate DMSO controls were simultaneously evaluated with the test compounds.
PDGF Receptor Autophosphorylation
RASMC were grown to confluency in 100 mm dishes. Growth medium was removed and replaced with serum-free medium and cells were incubated at 37° C. for an additional 24 hours. Test compounds were then added directly to the medium and cells incubated for an additional 2 hours. After 2 hours, PDGF-BB was added at a final concentration of 30 ng/mL for 5 minutes at 37° C. to stimulated autophosphorylation of the PDGF receptor. Following growth factor treatment, the medium was removed, and cells were washed with cold phosphate-buffered saline and immediately lysed with 1 mL of lysis buffer (50 mM HEPES[pH 7.5], 150 mM NaCl, 10% glycerol, 1% Triton X-100, 1 mM EDTA, 1 mMEGTA, 50 mM NaF, 1 mM sodium orthovanadate, 30 mM p-nitrophenyl phosphate, 10 mM sodium pyrophosphate, 1 mM phenylmethyl sulfonyl fluoride, 10 μg/mL aprotinin, and 10 μg/mL leupeptin). Lysates were centrifuged at 10,000×g for 10 minutes. […] Following the incubation, protein-A-sepharose beads were added for 2 hours with continuous mixing, and immune complexes bound to the beads washed 4 times with 1 mL lysis wash buffer. Immune complexes were solubilized in 30 μL of Laemmli sample buffer and electrophoresed in 4-20% SDS polyacrylamide gels. Following electrophoresis, separated proteins were transferred to nitrocellulose and immunoblotted with anti-phosphotyrosine antiserum. […] IC50 values were generated from the densitometric data.

V-src kinase = V-src kinase assay; assay type: biochemical; conditions: at 50 μM
Outline: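 Baculovirus-expressed v-src or c-src, immunopurified on antibody-coated latex beads, phosphorylated poly GluTyr with 5 μM ATP including [32P]-ATP in Tris pH 7.5/MgCl2. Reaction ran 10 min at room temperature, TCA/pyrophosphate quench, then filtered. Incorporated label counted by liquid scintillation and compared with solvent control.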

[2] = biological target: T2, mouse PDGF-β receptor tyrosine kinase (Mus musculus, UniProt P05622); experiment: PDGF receptor tyrosine kinase assay; assay type: biochemical; conditions: read-out: Inhibition of Protein Tyrosine Kinases, PDGF, IC50
T2 construct: a fragment of DNA that codes for the intracellular tyrosine kinase domain; made in house; host or cells: Sf9 insect cells (baculovirus), cell lysate
Outline: as §1

[3] = test system: Rat aorta smooth muscle cells (RASMC); experiment: [3H]-Thymidine incorporation assay in RASMC; assay type: cell-based; conditions: read-out: Inhibition of Growth Factor Stimulated Uptake of [3H]-thymidine (IC50)
Experimental: Cell Culture Rat aorta smooth muscle cells (RASMC) were isolated from the thoracic aorta of rats and explanted according to the method of Ross, J. Cell. Biol., 30:172-186 (1971). Cells were grown in Dulbecco's modified Eagle's medium (DMEM, Gibco) containing 10% fetal calf serum (FBS, Hyclone, Logan, Utah), 1% glutamine (Gibco) and 1% penicillin/streptomycin (Gibco). Cells were identified as smooth muscle cells by their "hill and valley" growth pattern and by fluorescent staining with a monoclonal antibody specific for SMC […] (Sigma). RASMC were used between passages 5 and 20 for all experiments. Test compounds were prepared in dimethylsulfoxide (DMSO) in order to achieve consistency in the vehicle and to ensure compound solubility. Appropriate DMSO controls were simultaneously evaluated with the test compounds. […] RASMC were plated into a 24-well plate (30,000 cells/well) in DMEM with 10% FBS. After 4 days, cells reached confluence and were made quiescent by incubation in DMEM/F12 medium (Gibco) containing 0.2% FBS for another 2 days. […] […] The acid-insoluble fraction was lysed in 0.75 mL 0.25N NaOH and the radioactivity determined by liquid scintillation counting. IC50 values were determined graphically.

C-src kinase = biological target: T3, C-src kinase (Homo sapiens, UniProt P12931); experiment: C-src kinase assay; assay type: biochemical; conditions: read-out: Inhibition of Protein Tyrosine Kinases, C-src, IC50
T3 construct: made in house; host or cells: baculovirus-infected insect cells
Outline: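 Baculovirus-expressed c-src immunopurified on antibody-coated latex beads, assayed in 40 mM Tris pH 7.5, 5 mM MgCl2 with poly GluTyr substrate and 5 μM ATP plus 32P-ATP. Reaction 10 min at room temperature, TCA-quenched, filtered; incorporated label counted by scintillation.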

Streptococcus pneumoniae = experiment: standard in vitro assays of antibacterial activity; assay type: cell-based; conditions: Gram+ bacterial strain
Source text: These compounds are potent inhibitors of one or more of the protein kinases, PDGF, FGF, EGF, V-src, and C-src. The invention compounds are thus useful in treating atherosclerosis, restenosis, and cancer. Specific tumors to be treated with the compounds include small-cell lung carcinoma such as that described in An. Rev. Respir. Dis., 142:554-556 (1990); human breast cancer as described in Cancer Research, 52:4773-4778 (1992); low grade human bladder carcinomas of the type described in Cancer Research, 52:1457-1462 (1992); human colorectal cancer as discussed in J. Clin. Invest., 91:53-60 (1993); and in J. Surg. Res., 54:293-294 (1993). The compounds also are useful as antibiotics against bacteria such as Streptococcus pneumoniae. […] The compounds additionally are useful as herbicides against a wide variety of undesirable plants such as broad leaf weeds and grasses.

[4] = biological target: T4, Human EGF receptor tyrosine kinase (Homo sapiens, UniProt P00533); experiment: EGF receptor tyrosine kinase assay; assay type: biochemical; conditions: read-out: Inhibition of Protein Tyrosine Kinases, EGF, IC50
T4 construct: isolated from A431 epidermoid carcinoma cells; endogenous in cells; host or cells: A431 epidermoid carcinoma cells (Triton lysate, wheat germ agglutinin eluate)
Experimental: Purification of Epidermal Growth Factor Receptor Tyrosine Kinase
Human EGF receptor tyrosine kinase was isolated from A431 epidermoid carcinoma cells by the following methods. Cells were grown in roller bottles in 50% Delbuco's Modified Eagle and 50% HAM F-12 nutrient media (Gibco) containing 10% fetal calf serum. Approximately 10^9 cells were lysed in two volumes of buffer containing 20 mM 2-(4N-[2-hydroxyethyl]piperazin-1-yl)ethanesulfonic acid, pH 7.4, 5 mM ethylene glycol bis(2-aminoethyl ether)N,N,N',N'-tetraacetic acid, 1% Triton X-100, 10% glycerol, 0.1 mM sodium orthovanadate, 5 mM sodium fluoride, 4 mM pyrophosphate, 4 mM benzamide, 1 mM dithiothreitol, 80 μg/mL aprotinin, 40 μg/mL leupeptin, and 1 mM phenylmethylsulfonyl fluoride. After centrifugation at 25,000×g for 10 minutes, the supernatant was equilibrated for 2 hours at 4° C. with 10 mL of wheat germ agglutinin sepharose that was previously equilibrated with 50 mM Hepes, 10% glycerol, 0.1% Triton X-100 and 150 mM NaCl, pH 7.5, (equilibration buffer). Contaminating proteins were washed from the resin with 1M NaCl in equilibration buffer, and the enzyme was eluted with 0.5M N-acetyl-1-D-glucosamine in equilibration buffer.
Determination of IC50 Values
The reaction was terminated by the addition of 2 mL of 75 mM phosphoric acid and passed through a 2.5-cm phosphocellulose filter disc to bind the peptide. The filter was washed five times with 75 mM phosphoric acid and placed in a vial along with 5 mL of scintillation fluid (Ready gel Beckman).

T2 sequence (P05622 599-961 limits assumed): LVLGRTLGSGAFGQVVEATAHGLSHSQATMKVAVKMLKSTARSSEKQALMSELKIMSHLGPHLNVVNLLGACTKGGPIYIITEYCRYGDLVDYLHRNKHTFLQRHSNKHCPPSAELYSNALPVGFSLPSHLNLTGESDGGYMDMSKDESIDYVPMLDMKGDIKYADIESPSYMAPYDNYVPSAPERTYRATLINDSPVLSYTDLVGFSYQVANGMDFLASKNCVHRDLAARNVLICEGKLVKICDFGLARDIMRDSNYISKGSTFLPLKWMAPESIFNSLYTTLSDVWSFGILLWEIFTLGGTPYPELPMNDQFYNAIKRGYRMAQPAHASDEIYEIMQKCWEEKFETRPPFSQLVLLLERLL
T1 sequence (P11362 478-767 limits assumed): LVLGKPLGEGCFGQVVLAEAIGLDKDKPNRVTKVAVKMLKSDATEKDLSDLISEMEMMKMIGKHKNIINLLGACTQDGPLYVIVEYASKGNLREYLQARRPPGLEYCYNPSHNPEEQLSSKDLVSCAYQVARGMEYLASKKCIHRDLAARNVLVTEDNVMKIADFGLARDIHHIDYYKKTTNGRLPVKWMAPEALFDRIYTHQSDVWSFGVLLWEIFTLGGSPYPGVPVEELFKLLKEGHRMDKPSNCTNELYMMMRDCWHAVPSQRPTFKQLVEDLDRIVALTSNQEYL
T3 sequence (P12931 whole entry): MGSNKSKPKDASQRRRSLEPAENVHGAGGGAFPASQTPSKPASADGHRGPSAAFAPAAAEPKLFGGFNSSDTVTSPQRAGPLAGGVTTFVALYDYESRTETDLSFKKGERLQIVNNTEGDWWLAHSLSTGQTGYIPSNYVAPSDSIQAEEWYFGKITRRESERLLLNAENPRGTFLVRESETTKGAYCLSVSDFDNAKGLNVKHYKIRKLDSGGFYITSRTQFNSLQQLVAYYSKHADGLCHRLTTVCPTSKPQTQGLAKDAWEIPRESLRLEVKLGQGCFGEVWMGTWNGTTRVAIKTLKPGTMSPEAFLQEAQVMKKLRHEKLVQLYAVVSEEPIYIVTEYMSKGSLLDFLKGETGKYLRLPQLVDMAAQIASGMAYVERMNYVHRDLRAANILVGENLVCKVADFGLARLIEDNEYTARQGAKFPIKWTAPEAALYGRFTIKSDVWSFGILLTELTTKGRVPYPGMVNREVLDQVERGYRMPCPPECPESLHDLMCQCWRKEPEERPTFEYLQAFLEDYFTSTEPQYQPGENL
T4 sequence (P00533 25-1210): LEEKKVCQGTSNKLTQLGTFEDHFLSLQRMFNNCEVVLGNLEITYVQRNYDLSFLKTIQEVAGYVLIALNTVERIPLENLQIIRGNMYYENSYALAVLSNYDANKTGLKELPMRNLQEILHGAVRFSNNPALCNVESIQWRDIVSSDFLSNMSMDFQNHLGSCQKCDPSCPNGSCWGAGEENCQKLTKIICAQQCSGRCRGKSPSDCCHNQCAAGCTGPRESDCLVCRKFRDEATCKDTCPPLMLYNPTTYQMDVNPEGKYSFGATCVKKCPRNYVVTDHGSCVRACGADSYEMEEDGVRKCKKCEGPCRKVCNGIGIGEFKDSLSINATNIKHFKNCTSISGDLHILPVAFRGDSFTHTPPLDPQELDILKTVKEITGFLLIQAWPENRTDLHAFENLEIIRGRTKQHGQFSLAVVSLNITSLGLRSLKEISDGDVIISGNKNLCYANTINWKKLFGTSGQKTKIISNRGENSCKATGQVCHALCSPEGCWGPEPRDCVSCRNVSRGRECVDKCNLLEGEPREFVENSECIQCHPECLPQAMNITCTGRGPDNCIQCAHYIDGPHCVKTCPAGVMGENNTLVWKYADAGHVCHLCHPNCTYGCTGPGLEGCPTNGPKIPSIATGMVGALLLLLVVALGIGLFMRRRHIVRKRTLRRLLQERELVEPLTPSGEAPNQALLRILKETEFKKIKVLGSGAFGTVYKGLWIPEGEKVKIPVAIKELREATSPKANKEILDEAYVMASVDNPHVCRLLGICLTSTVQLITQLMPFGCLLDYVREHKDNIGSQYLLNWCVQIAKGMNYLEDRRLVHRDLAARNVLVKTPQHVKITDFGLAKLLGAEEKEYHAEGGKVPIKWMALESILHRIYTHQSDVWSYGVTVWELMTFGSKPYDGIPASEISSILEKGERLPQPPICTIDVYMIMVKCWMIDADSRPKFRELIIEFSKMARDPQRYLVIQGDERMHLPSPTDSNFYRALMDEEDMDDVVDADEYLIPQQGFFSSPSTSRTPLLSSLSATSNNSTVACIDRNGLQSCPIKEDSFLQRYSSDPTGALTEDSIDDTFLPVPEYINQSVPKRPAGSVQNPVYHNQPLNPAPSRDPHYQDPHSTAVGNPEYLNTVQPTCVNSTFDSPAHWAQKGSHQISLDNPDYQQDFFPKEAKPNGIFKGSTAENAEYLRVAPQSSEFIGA

Structure (SMILES) | IC50 [1] [nM] | IC50 (PDGF receptor) [nM] | Inhibition of Protein Tyrosine Kinases, V-src, % Inhibition (V-src kinase) [%] | IC50 [2] [nM] | IC50 ([3]; FGF stimulated) [nM] | IC50 ([3]; PDGF stimulated) [nM] | IC50 (C-src kinase) [nM] | activity against Streptococcus pneumoniae (Streptococcus pneumoniae) | IC50 [4] [nM]
CC(C)(C)NC(=O)Nc1nc2nc(N)ncc2cc1-c1c(Cl)cccc1Cl [Example 3, 1-[2-Amino-6-(2,6-dichlorophenyl)-pyrido[2,3-d]pyrimidin-7-yl]-3-tert-butylurea] | 140 | 970 | 46.8 | 1250 | 900 | 2700 |  |  | 
CCCCNc1nc2nc(N)ncc2cc1-c1ccccc1 [Example 9, N^7 -Butyl-6-phenyl-pyrido[2,3-d]pyrimidine-2,7-diamine] | 10600 |  |  | 25100 |  |  | 18300 | exhibited activity | 
Nc1cc2nc(N)c(-c3c(Cl)cccc3Cl)cc2cn1 [Example 18, 3-(2,6-Dichlorophenyl)-[1,6]-naphthyridine-2,7-diamine] | 1190 |  | 21.4 | 21300 |  |  | 514 | exhibited activity | 18200
CCN(CC)CCCCNc1ncc2cc(-c3c(Cl)cccc3Cl)c(NC(=O)NC(C)(C)C)nc2n1 [Example 123, 1-tert-Butyl-3-[6-(2,6-dichlorophenyl)-2-(4-diethyl-amino-butylamino)-pyrido[2,3-d]pyrimidin-7-yl]-urea] |  | 296 |  |  | 320 | < 300 | 29 |  | 
